In patent EP0467365A2, “Use of a 5-hydroxytryptamine-3(5-HT3) receptor antagonist for the preparation of a pharmaceutical composition for treating urinary incontinence” (E.R. SQUIBB & SONS, INC., priority 1990, dated 1992):
“Also recorded” adds a separate entry of the source. Counter-ions that a name gives are not always drawn. Like-named read-outs stand apart in the source and are kept apart here.

Experiments:
Type in all cases: cell-based
[1] = system: rabbit bladder strips; test: 5-HT-induced contraction of rabbit bladder (detrusor) strips, organ bath tension recording; details: for inhibition of the 5-HT contractions: atropine 10^-7M, α,β-methylene ATP 10^-6M; for antagonism of the 5-HT-induced contraction / pA2: 30 minutes exposure; for antagonism of the 5-HT-induced contraction: BRL 43694 5 x 10^-11 to 2 x 10^-10M, ICS 205930 5 x 10^-12 to 1 x 10^-10M, MDL 72222 5 x 10^-10 to 5 x 10^-9M; for pA2: antagonism of 5-HT-induced contraction, rabbit detrusor strips, Schild plot, mean ± s.e.mean; for atropine and α,β-methylene ATP-resistant component of 5-HT-induced contraction: bladder strips, in presence of atropine and α,β-methylene ATP; for effect on the contractile response to 5-HT: ketanserine 10^-7 to 10^-6M, methysergide and metitepine 10^-8 to 10^-7M, anterior detrusor of female rabbits
[2] = system: urethra; test: 5-HT-induced contraction of rabbit urethra strips, organ bath tension recording; details: 30-second application, 10^-6 to 10^-3M
[3] = system: rabbit bladder; test: Contractile response of rabbit bladder strips to electrical field stimulation of intrinsic nerves; details: for effect on the response to field stimulation: α,β-methylene ATP dose-dependent, all frequencies

NCCc1c[nH]c2ccc(O)cc12 [5-HT, 5-Hydroxytryptamine creatinine sulphate complex]
contraction in the rabbit bladder ([1]; 30-second application, 10^-8 to 10^-3M): dose-dependent contraction
contraction in the urethra [2]: dose-dependent contraction

CN1[C@@H]2CC[C@H]1CC(OC(=O)C(CO)c1ccccc1)C2.CN1[C@@H]2CC[C@H]1CC(OC(=O)C(CO)c1ccccc1)C2.O=S(=O)(O)O (stereo partly drawn) [Atropine, Atropine sulphate]
inhibition of the 5-HT contractions [1]: partially inhibited
inhibition of the response to field stimulation (maximum) ([3]; 20 minute pretreatment, 10^-8 to 10^-6M, maximum at high frequencies): 40%
control response to field stimulation still persisting ([3]; atropine 10^-8 to 10^-6M, 5-50 Hz, posterior detrusor of male rabbits): approximately 60%
effect on the response to field stimulation ([3]; atropine 10^-8 to 10^-6M): only partially inhibited

CN1C2CCCC1CC(NC(=O)c1nn(C)c3ccccc13)C2 (stereo not drawn) [BRL 43694, [endo]N-(9-methyl-9-azabicyclo-[3,3,1]-non-3-yl)-1-methyl-1H-indazole-3-carboxamide hydrochloride]
antagonism of the 5-HT-induced contraction ([1]; hydrochloride): strongly and competitively antagonized; also recorded: dose-dependent inhibition
antagonism of the 5-HT-induced contraction ([1]; listed as BRL 43695, hydrochloride): effective at blocking
pA2 [1]: 10.5 ± 0.01
atropine and α,β-methylene ATP-resistant component of 5-HT-induced contraction [1]: not abolished

CN1[C@@H]2CC[C@H]1C[C@@H](OC(=O)c1c[nH]c3ccccc13)C2 [ICS 205930, 3a-tropanyl-1 H-indole-3-carboxylic acid ester]
antagonism of the 5-HT-induced contraction [1]: strongly and competitively antagonized; also recorded: effective at blocking
antagonism of the 5-HT-induced contraction ([1]; listed as ICS 205-930): most potent antagonistic effect
pA2 [1]: 12.5 ± 0.36
atropine and α,β-methylene ATP-resistant component of 5-HT-induced contraction [1]: not abolished

CN1[C@@H]2CC[C@H]1C[C@@H](OC(=O)c1cc(Cl)cc(Cl)c1)C2 [MDL 72222, laH,3a,5aH-tropan-3-yl-3,5-dichlorobenzoate]
antagonism of the 5-HT-induced contraction [1]: strongly and competitively antagonized; also recorded: dose-dependent inhibition; also recorded: effective at blocking
pA2 [1]: 9.3 ± 0.04
atropine and α,β-methylene ATP-resistant component of 5-HT-induced contraction [1]: not abolished
effect on the contraction to field stimulation ([3]; 10^-7M): no effect

NC1=N[C@H](O)[C@H]2[C@H]3O[C@]4(O)O[C@@H]([C@@H](O)[C@@]2(N1)[C@@H]4O)[C@]3(O)CO [TTX, Tetrodotoxin]
effect on the 5-HT-induced contraction of the rabbit bladder [1]: did not affect; also recorded: no effect
abolition of the responses to field stimulation [3]: complete; also recorded: completely blocks

C[N+](C)(C)CCCCCC[N+](C)(C)C [hexamethonium, Hexamethonium bromide]
effect on the 5-HT-induced contraction of the rabbit bladder [1]: did not affect; also recorded: not blocked

CC[C@@H](CO)NC(=O)[C@@H]1C=C2c3cccc4c3c(cn4C)C[C@H]2N(C)C1 [methysergide, Methysergide bimaleate]
atropine and α,β-methylene ATP-resistant component of 5-HT-induced contraction [1]: not abolished
effect on the contractile response to 5-HT [1]: no significant effect

Cc1ccc(N(CC2=NCCN2)c2cccc(O)c2)cc1 [phentolamine, Phentolamine mesylate]
effect on the 5-HT-induced contraction of the rabbit bladder [1]: did not affect; also recorded: not blocked

COc1cc2nc(N3CCN(C(=O)c4ccco4)CC3)nc(N)c2cc1OC [prazosin, Prazosin hydrochloride]
effect on the 5-HT-induced contraction of the rabbit bladder ([1]; hydrochloride): did not affect; also recorded: not blocked

Nc1ncnc2c1ncn2C1OC(COP(=O)(O)CP(=O)(O)OP(=O)(O)O)C(O)C1O (stereo not drawn) [α,β-methylene ATP, α,β-Methyleneadenosine 5'-Triphosphate]
inhibition of the 5-HT contractions [1]: partially inhibited
inhibition of the response to field stimulation ([3]; 10^-6M): about 35%
effect on the response to field stimulation ([3]; atropine 10^-8 to 10^-6M): dose-dependent inhibition

Ketanserine tartrate
atropine and α,β-methylene ATP-resistant component of 5-HT-induced contraction [1]: not abolished
effect on the contractile response to 5-HT [1]: no effect
effect on the contractile response to 5-HT ([1]; listed as ketanserine): no significant effect

Metitepine monomethanesulfonate
atropine and α,β-methylene ATP-resistant component of 5-HT-induced contraction [1]: not abolished
effect on the contractile response to 5-HT [1]: no significant effect
